According to article PMC7032632 (Experimental eye research, 2019):
Ends that are not written are not given here.

What was measured:
[1] = test system: VEGF-activated endothelial cells (primary human dermal microvascular EC); format: cell-based; details: 48 h
cells presenting 67LR = details: ref Gopalakrishna et al., 2018; Yu et al., 2009; cited from earlier work
[2] = test system: choroidal neovascularization (CNV); details: mouse, day 0 IVT injection; ref Wang et al., 2012; cited from earlier work

Substance	EC50 [1]	other results
YIGSR	–	activity range in cells presenting 67LR (cells presenting 67LR): 2 to 20 µM
Ac-GV-d-alloIle-Ser-Q-I-R-Pro-ethylamide [ABT-898]	–	laser-induced CNV, IVT injection [2]: mitigate laser-induced CNV

The next lines start with results.

EC50 [1]	Substance	other results
60 nM	Ac-GYDLYRVRS-NH2 [PEDF 860]	–
10 nM	NFGYDLYRVRSSMSPTTN [PEDF P18]	–
30 nM	Ac-GYDLYRV-NH2 [PEDF 862]	–
